Assay results from patent US8063221B2, “Aminoquinolones as GSK-3 inhibitors” (Kyorin Pharmaceutical Co., Ltd., priority 2006, dated 2011).
In brackets after ≈: the same amount, converted by molar mass. Read-outs that look alike come from different tables or passages of the source.

Experiments:
[1] = Animal Study 2 (oral glucose tolerance test); parameters: species or system Crlj:CD1 (ICR) mice; details: Mus musculus, read-out: In vivo studies 300 mg/kg (oral glucose tolerance test, % decrease)
Description: The results of in vivo oral glucose tolerance test (Example 39), expressed as % decrease, are presented as follows: […]
Animal Study 2 (Oral Glucose Tolerance Test)
Male Crlj:CD1 (ICR) mice were obtained from Charles River Laboratries Japan (Yokohama, Japan). All mice were given a standard diet (Clea Japan, Tokyo, Japan) and tap water ad libitum. All institutional guidelines for animal care and use were applied in this study. Test compounds were suspended in 0.3% carboxymethyl-cellulose sodium salt (CMC-Na; Sigma, St. Louis, Mo.). After fasting for 15-17 hr, the test compound (300 mg/kg) or vehicle (0.3% CMC-Na) was orally administered to 7-week-old ICR mice. Glucose solution (5 g/kg) was orally administered at 30 min after test compound treatment. Blood samples were collected from tail vein using capillary tubes containing EDTA·2K before test compound treatment, and at 0, 0.5, 1, and 2 hr after glucose load. The blood samples were centrifuged at 2,500×g for 5 min and separated plasma was kept on ice and analyzed in the same day. Plasma glucose levels were determined using the glucose C II-test (Wako Pure Chemical Industries, Osaka, Japan).
The sum of plasma glucose levels at 0.5 and 1 hr after glucose load was compared to that of vehicle treatment, and results were presented as percent decrease.

[2] = target: T1, recombinant full-length human GSK3β (Homo sapiens, UniProt P49841); experiment: Luciferase-coupled cell-free GSK3β kinase assay; assay type: biochemical
T1 construct: recombinant full-length human GSK3β (Upstate); purchased Upstate
Outline: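 GSK3β, 10-25 ng, was incubated with compound for 1 h at 30° C in MOPS pH 7.0 buffer containing 62.5 μM phospho-glycogen synthase peptide-2 and 5 μM ATP. Remaining ATP was read by KinaseGlo luminescence, and IC50 was fitted from % inhibition relative to maximal inhibition.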

E. coli, ATCC8739 = experiment: Antibacterial activity (MIC), E. coli; assay type: cell-based; details: Escherichia coli, E. coli ATCC8739
Description: (§1) As used herein, a minimum inhibitory concentration (MIC) for bacterial growth assay is the lowest level of a compound needed to cause an inhibition to bacterial growth in culture medium. In certain embodiments, the antibacterial activity of compounds herein, measured as MIC.
(§2) In certain embodiments, GSK3 inhibitors provided herein are substantially free of antibacterial activity or having very low antibacterial activity. The antibacterial activity can be measured by methods known in the art by estimating a minimum inhibitory concentration (MIC) for test compounds. A MIC is the lowest level of a compound needed to cause an inhibition to bacterial growth in a culture medium. […] (Clinical and Laboratory Standards Institute. Methods for Dilution Antimicrobial Susceptibility Tests for Bacteria That Grow Aerobically; Approved Standard-Sixth Edition: CLSI document […]. CLSI, Wayne, Pa. (2003))
(§3) Antibacterial activity for E. coli, ATCC8739 andS. aureus Smith expressed as MIC (μM) is provided as follows: […]

S. aureus Smith = experiment: Antibacterial activity (MIC), S. aureus; assay type: cell-based; details: Staphylococcus aureus
Description: as §1, §2, §3

[3] = Table 2, 300 mg/kg oral, ICR mice, plasma glucose 0.5 and 1 hr after glucose load vs vehicle
[4] = ATCC8739, Table 2, read-out: Antimicrobial MIC [μM] E. Coli
[5] = Table 2, S. aureus Smith, read-out: Antimicrobial MIC [μM] S. aureus
[6] = ATCC8739, Table 1, read-out: Antibacterial MIC (μM) E.Coli
[7] = Table 1, read-out: Antibacterial MIC (μM) S. aureus Smith

T1 sequence (P49841 whole entry): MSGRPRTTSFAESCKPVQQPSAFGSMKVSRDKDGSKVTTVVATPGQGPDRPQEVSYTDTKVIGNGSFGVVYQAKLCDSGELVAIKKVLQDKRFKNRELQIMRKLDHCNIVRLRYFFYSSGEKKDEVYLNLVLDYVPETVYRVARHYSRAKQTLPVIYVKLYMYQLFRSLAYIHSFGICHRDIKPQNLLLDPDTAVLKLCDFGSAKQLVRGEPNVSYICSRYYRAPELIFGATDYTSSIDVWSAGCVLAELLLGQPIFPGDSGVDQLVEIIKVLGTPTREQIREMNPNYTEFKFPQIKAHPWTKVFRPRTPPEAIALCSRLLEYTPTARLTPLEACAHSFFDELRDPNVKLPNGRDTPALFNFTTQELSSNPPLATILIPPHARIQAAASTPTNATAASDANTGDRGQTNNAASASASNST

| SMILES | IC50 ([2]; Table 2) [nM] | MIC (E. coli, ATCC8739; [4]) [µM] | MIC (S. aureus Smith; [5]) [µM] | other results |
| --- | --- | --- | --- | --- |
| Cc1nn(C)c(C)c1CCCNc1c(F)c(N)c2c(=O)c(C(=O)O)cn3c2c1OC[C@@H]3C [Example 93] | – | – | – | inhibition in vivo at 300 mg/kg [1, 3]: > 20% |
| C[C@H]1COc2c(NCCCn3ccnc3)c(F)c(N)c3c(=O)c(C#N)cn1c23 [Example 114] | < 100 | – | – | inhibition in vivo at 300 mg/kg [1, 3]: > 20% |
| CC(C)C[C@H]1COc2c(NCCCn3cnc4ccccc43)c(F)c(N)c3c(=O)c(C(=O)O)cn1c23 [compound 49] | – | – | – | inhibition in vivo at 300 mg/kg ([1]; po): 10 to 20% |
| CC(C)[C@H]1COc2c(NCCCn3ccnc3)c(F)c(N)c3c(=O)c(C(=O)O)cn1c23 [compound 55] | – | – | – | inhibition in vivo at 300 mg/kg ([1]; po): 10 to 20% |
| CC1(C)COc2c(NCCNc3ccccn3)c(F)c(N)c3c(=O)c(C(=O)O)cn1c23 [compound 17] | – | – | – | inhibition in vivo at 300 mg/kg ([1]; po): 10 to 20% |
| CC(C)[C@@H]1COc2c(NCCCn3cnc4ccccc43)c(F)c(N)c3c(=O)c(C(=O)O)cn1c23 [compound 65] | < 100 | 0.5 to 10 (≈ 0.24 to 4.8 µg/mL) | 0.5 to 10 (≈ 0.24 to 4.8 µg/mL) | – |
| CC1COc2c(NCCCN3CCCC3=O)c(F)c(N)c3c(=O)c(C(=O)O)cn1c23 (stereo not drawn) [compound 5] | < 100 | > 50 | 0.5 to 10 (≈ 0.209 to 4.18 µg/mL) | – |
| COc1c(NCCNc2ccccn2)c(F)c(N)c2c(=O)c(C(=O)O)cn(C3CCCC3)c12 [compound 77] | – | – | – | IC50 ([2]; Table 1): > 1000 nM; MIC (E. coli, ATCC8739; [6]): 10 to 50 µM (≈ 4.55 to 22.8 µg/mL); MIC (S. aureus Smith; [7]): 0.5 to 10 µM (≈ 0.228 to 4.55 µg/mL) |
| CC1(C)Cn2cc(C(=O)O)c(=O)c3c(N)c(F)c(NCCCn4ccnc4)c(c32)O1 [compound 58] | 100 to 500 | > 50 | > 50 | – |
| Nc1cc(NCCNc2cccc3ccccc23)cc2c1c(=O)ccn2C1CC1 [compound 66] | – | – | – | IC50 ([2]; Table 1): < 100 nM; MIC (E. coli, ATCC8739; [6]): 10 to 50 µM (≈ 3.84 to 19.2 µg/mL); MIC (S. aureus Smith; [7]): 10 to 50 µM (≈ 3.84 to 19.2 µg/mL) |
| COc1c(NCCNc2ccccn2)c(F)c(N)c2c(=O)c(C(=O)O)cn(C)c12 [Example 129] | 100 to 500 | 10 to 50 (≈ 4.01 to 20.1 µg/mL) | 10 to 50 (≈ 4.01 to 20.1 µg/mL) | – |
| Nc1c(F)c(NCCCn2ccnc2)c(F)c2c1c(=O)c(C(=O)O)cn2C1CC1 [compound 23] | – | – | – | IC50 ([2]; Table 1): < 100 nM; MIC (E. coli, ATCC8739; [6]): 0.5 to 10 µM (≈ 0.202 to 4.03 µg/mL); MIC (S. aureus Smith; [7]): 0.5 to 10 µM (≈ 0.202 to 4.03 µg/mL) |
| CC1(C)COc2c(NCCCN3CCCC3=O)c(F)c(N)c3c(=O)c(C(=O)O)cn1c23 [compound 41] | < 100 | > 50 | > 50 | – |
| CC1COc2c(NCCNc3cc(F)cc(F)n3)c(F)c(N)c3c(=O)c(C(=O)O)cn1c23 (stereo not drawn) [compound 15] | < 100 | 0.5 to 10 (≈ 0.225 to 4.49 µg/mL) | 0.5 to 10 (≈ 0.225 to 4.49 µg/mL) | – |
| COc1c(NCCNc2ccccn2)c(Cl)c(N)c2c(=O)c(C(=O)O)cn(C3CC3)c12 [Example 121] | < 100 | 10 to 50 (≈ 4.44 to 22.2 µg/mL) | 0.5 to 10 (≈ 0.222 to 4.44 µg/mL) | – |
| CC1COc2c(NCCc3ccncc3)c(F)c(N)c3c(=O)c(C(=O)O)cn1c23 (stereo not drawn) [compound 3] | 100 to 500 | 0.5 to 10 (≈ 0.199 to 3.98 µg/mL) | 0.5 to 10 (≈ 0.199 to 3.98 µg/mL) | – |
| COc1c(NCCCn2ccnc2)c(F)c(N)c2c(=O)ccn(C3CC3)c12 [compound 2] | 100 to 500 | > 50 | > 50 | – |
| CC1(C)COc2c(NCCNc3ccccn3)c(F)c(N)c3c(=O)c(C(=O)O)cn1c23 [compound 16] | < 100 | > 50 | > 50 | – |
| COc1c(NCCNc2ccccc2)c(F)c(N)c2c(=O)c(C(=O)O)cn(C3CC3)c12 [compound 84] | – | – | – | IC50 ([2]; Table 1): 100 to 500 nM; MIC (E. coli, ATCC8739; [6]): 10 to 50 µM (≈ 4.26 to 21.3 µg/mL); MIC (S. aureus Smith; [7]): 0.5 to 10 µM (≈ 0.213 to 4.26 µg/mL) |
| CC(C)C[C@H]1COc2c(NCCNc3ccccn3)c(F)c(N)c3c(=O)c(C(=O)O)cn1c23 [compound 51] | < 100 | 10 to 50 (≈ 4.55 to 22.8 µg/mL) | 10 to 50 (≈ 4.55 to 22.8 µg/mL) | – |
| Nc1c(F)c(NCCc2ccc(O)cc2)c(F)c2c1c(=O)c(C(=O)O)cn2C1CC1 [compound 16] | – | – | – | IC50 ([2]; Table 1): 500 to 1000 nM; MIC (E. coli, ATCC8739; [6]): 0.5 to 10 µM (≈ 0.208 to 4.15 µg/mL); MIC (S. aureus Smith; [7]): < 0.5 µM |
| Nc1c(F)c(NCCNc2cccc3ccccc23)c(F)c2c1c(=O)c(C(=O)O)cn2CCc1ccccc1 [compound 51] | – | – | – | IC50 ([2]; Table 1): 100 to 500 nM; MIC (E. coli, ATCC8739; [6]): 10 to 50 µM (≈ 5.29 to 26.4 µg/mL); MIC (S. aureus Smith; [7]): 10 to 50 µM (≈ 5.29 to 26.4 µg/mL) |
